# Structures can show the parent of a compound that is named as a salt.
# Target: T1, PRS (prolyl-tRNA synthetase) (Homo sapiens, UniProt P07814)
# T1 construct: the portion corresponding to PRS in cDNA of EPRS was subcloned; made in house
# T1 sequence (P07814 1007-1512 limits assumed): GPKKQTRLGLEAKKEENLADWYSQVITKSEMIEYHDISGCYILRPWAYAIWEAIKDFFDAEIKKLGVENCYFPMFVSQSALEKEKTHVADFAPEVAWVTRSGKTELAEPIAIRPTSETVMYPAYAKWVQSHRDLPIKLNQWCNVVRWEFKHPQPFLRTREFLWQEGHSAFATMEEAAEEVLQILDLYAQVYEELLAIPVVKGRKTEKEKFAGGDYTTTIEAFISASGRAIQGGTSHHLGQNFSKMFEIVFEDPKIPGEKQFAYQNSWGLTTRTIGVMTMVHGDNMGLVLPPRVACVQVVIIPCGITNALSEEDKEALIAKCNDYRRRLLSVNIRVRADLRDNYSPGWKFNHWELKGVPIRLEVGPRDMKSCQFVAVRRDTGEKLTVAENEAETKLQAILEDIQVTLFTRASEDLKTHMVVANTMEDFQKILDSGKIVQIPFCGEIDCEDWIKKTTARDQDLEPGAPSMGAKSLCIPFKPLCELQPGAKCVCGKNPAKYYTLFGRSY
# Assay: In vitro PRS enzyme activity inhibition experiment ([3H]proline, liquid scintillation)
# Format: biochemical
# Details: purified PRS protein subcloned from EPRS cDNA; 37° C., 5 to 10 minutes; read-out: PRS IC50
# Procedure: In order to confirm the biological activities of the compounds prepared in Examples, % inhibition or IC50 values of PRS enzyme ([…]) activities were calculated.
# Specifically, the portion corresponding to PRS in cDNA of EPRS was subcloned, and the obtained high-purity PRS protein was purified and used in the experiment. The compounds (1 μM) prepared in Examples were added into the reaction buffer (20 mM KPO4 (pH 7.4), 6 mM MgAc, 5 mM ATP, […] tRNA, 0.5 mM DTT, 20 mCi[^3H]proline (1 mCi/mL)) and allowed to react at 37° C. for 5 to 10 minutes. The reaction was terminated with 3M paper that was previously dried by addition of 5% TCA. The radioactivity was measured using a liquid scintillation counter.
# IC50 values of the respective compounds were calculated and analyzed using Microsoft Excel or Sigma Plot 8.0. In Table 1, the results are divided into A, B and C according to the range of IC50. The case where the derived IC50 is 100 nM or less is represented by “A”, the case where the IC50 is 100 to 500 nM is represented by “B”, and the case where the IC50 is 500 nM or higher is represented by “C”.
row,IC50,Structure (SMILES)
1,> 0.5 µM,"Cc1c(Cl)ccc2c1ncn2CC(O)C[C@H]1NCCC[C@@H]1O (stereo partly drawn) [Example 76, (2R,3S)-2-(3-(5-chloro-4-methyl-1H-benzo[d]imidazol-1-yl)-2-hydroxypropyl)piperidin-3-ol]"
2,0.1 to 0.5 µM,"Cc1ccc2c(cnn2CC(=O)C[C@H]2NCCC[C@@H]2O)c1Br [Example 97, 1-(4-bromo-5-methyl-1H-indazol-1-yl)-3-((2R,3S)-3-hydroxypiperidin-2-yl)propan-2-one]"
3,> 0.5 µM,"OC(C[C@H]1NCCC[C@@H]1O)Cn1cnc2c(Cl)c(Cl)ccc21 (stereo partly drawn) [Example 75, (2R,3S)-2-(3-(4,5-dichloro-1H-benzo[d]imidazol-1-yl)-2-hydroxypropyl)piperidin-3-ol]"
4,> 0.5 µM,"Cc1c(Br)ccc2c1ncn2CC(O)(C[C@H]1NCCC[C@@H]1O)C(F)(F)F (stereo partly drawn) [Example 85, (2R,3S)-2-(2-((5-bromo-4-methyl-1H-benzo[d]imidazol-1-yl)methyl)-3,3,3-trifluoro-2-hydroxypropyl)piperidin-3-ol]"
5,> 0.5 µM,"O=C(C[C@H]1NCCC[C@@H]1O)Cn1ncc2cc(Cl)ccc21 [Example 96, 1-(5-chloro-1H-indazol-1-yl)-3-((2R,3S)-3-hydroxypiperidin-2-yl)propan-2-one]"
6,> 0.5 µM,"O=C(C[C@H]1NCCC[C@@H]1O)Cn1ncc2cc(Cl)cnc21 [Example 98, 1-(5-chloro-1H-pyrazolo[3,4-b]pyridin-1-yl)-3-((2R,3S)-3-hydroxypiperidin-2-yl)propan-2-one]"
7,0.1 to 0.5 µM,"OC(C[C@H]1NCCC[C@@H]1O)Cn1cnc2c(Cl)c(Br)cnc21 (stereo partly drawn) [Example 79, (2R,3S)-2-(3-(6-bromo-7-chloro-3H-imidazo[4,5-b]pyridin-3-yl)-2-hydroxypropyl)piperidin-3-ol]"
8,0.1 to 0.5 µM,"O=C(C[C@H]1NCCC[C@@H]1O)Cn1ccc2cc(Cl)cnc21 [Example 91, 1-(5-chloro-1H-pyrrolo[2,3-b]pyridin-1-yl)-3-((2R,3S)-3-hydroxypiperidin-2-yl)propan-2-one]"
9,> 0.5 µM,"CNC(C[C@H]1NCCC[C@@H]1O)Cn1cnc2cc(Cl)c(Cl)cc21 (stereo partly drawn) [Example 86, (2R,3S)-2-(3-(5,6-dichloro-1H-benzo[d]imidazol-1-yl)-2-(methylamino)propyl)piperidin-3-ol]"
10,> 0.5 µM,"Cc1c(Cl)cnc2c1ncn2CC(O)C[C@H]1NCCC[C@@H]1O (stereo partly drawn) [Example 77, (2R,3S)-2-(3-(6-chloro-7-methyl-3H-imidazo[4,5-b]pyridin-3-yl)-2-hydroxypropyl)piperidin-3-ol]"

# Second part, the compound before the results:
row,Structure (SMILES),IC50
1,"Cc1ccc2c(ncn2CC(O)C[C@H]2NCCC[C@@H]2O)c1Br (stereo partly drawn) [Example 73, (2R,3S)-2-(3-(4-bromo-5-methyl-1H-benzo[d]imidazol-1-yl)-2-hydroxypropyl)piperidin-3-ol]",> 0.5 µM
2,"OC(C[C@H]1NCCC[C@@H]1O)Cn1cnc2c(F)c(Br)ccc21 (stereo partly drawn) [Example 74, (2R,3S)-2-(3-(5-bromo-4-fluoro-1H-benzo[d]imidazol-1-yl)-2-hydroxypropyl)piperidin-3-ol]",> 0.5 µM
3,"O=C(C[C@H]1NCCC[C@@H]1O)Cn1cnc2c1CCCC2 [Example 45, 1-((2R,3S)-3-hydroxypiperidin-2-yl)-3-(4,5,6,7-tetrahydro-1H-benzo[d]imidazol-1-yl)propan-2-one]",0.1 to 0.5 µM
4,"O=C(C[C@H]1NCCC[C@@H]1O)Cn1cnc2c(Cl)cc(Cl)nc21 [Example 41, 1-(5,7-dichloro-3H-imidazo[4,5-b]pyridin-3-yl)-3-((2R,3S)-3-hydroxypiperidin-2-yl)propan-2-one]",< 0.1 µM
5,"Cc1nc2c(F)c(F)ccc2n1CC(=O)C[C@H]1NCCC[C@@H]1O [Example 47, 1-(4,5-difluoro-2-methyl-1H-benzo[d]imidazol-1-yl)-3-((2R,3S)-3-hydroxypiperidin-2-yl)propan-2-one]",> 0.5 µM
6,"O=C(C[C@H]1NCCC[C@@H]1O)Cn1cnc2ncc(Br)cc21 [Example 31, 1-(6-bromo-1H-imidazo[4,5-b]pyridin-1-yl)-3-((2R,3S)-3-hydroxypiperidin-2-yl)propan-2-one]",> 0.5 µM
7,"CO/N=C(/C[C@H]1NCCC[C@@H]1O)Cn1cnc2cc(Cl)c(Cl)cc21 [Example 67, 1-(5,6-dichloro-1H-benzo[d]imidazol-1-yl)-3-((2R,3S)-3-hydroxypiperidin-2-yl)propan-2-one O-methyl oxime]",> 0.5 µM
8,"C[C@@H](O)c1nc2ccccc2n1CC(=O)C[C@H]1NCCC[C@@H]1O [Example 54, 1-(2-((R)-1-hydroxyethyl)-1H-benzo[d]imidazol-1-yl)-3-((2R,3S)-3-hydroxypiperidin-2-yl)propan-2-one]",> 0.5 µM
9,"O=C(C[C@H]1NCCC[C@@H]1O)Cn1c(CCO)nc2ccc(F)cc21 [Example 53, 1-(6-fluoro-2-(2-hydroxyethyl)-1H-benzo[d]imidazol-1-yl)-3-((2R,3S)-3-hydroxypiperidin-2-yl)propan-2-one]",> 0.5 µM
10,"OCc1nc2cc(Cl)c(Cl)cc2n1C/C(C[C@H]1NCCC[C@@H]1O)=N/O [Example 65, 1-(5,6-dichloro-2-(hydroxymethyl)-1H-benzo[d]imidazol-1-yl)-3-((2R,3S)-3-hydroxypiperidin-2-yl)propan-2-one oxime]",> 0.5 µM
11,"O=C(C[C@H]1NCCC[C@@H]1O)Cn1cnc2cc(C(=O)O)ncc21 [Example 43, 3-(3-((2R,3S)-3-hydroxypiperidin-2-yl)-2-oxopropyl)-3H-imidazo[4,5-c]pyridine-6-carboxylic acid hydrochloride salt]",> 0.5 µM
12,"OC(C[C@H]1NCCC[C@@H]1O)Cn1cnc2c(C(F)(F)F)c(Br)ccc21 (stereo partly drawn) [Example 72, (2R,3S)-2-(3-(5-bromo-4-(trifluoromethyl)-1H-benzo[d]imidazol-1-yl)-2-hydroxypropyl)piperidin-3-ol]",> 0.5 µM
13,"O/N=C(/C[C@H]1NCCC[C@@H]1O)Cn1cnc2cc(Cl)c(Cl)cc21 [Example 64, 1-(5,6-dichloro-1H-benzo[d]imidazol-1-yl)-3-((2R,3S)-3-hydroxypiperidin-2-yl)propan-2-one oxime]",> 0.5 µM
14,"O=C(C[C@H]1NCCC[C@@H]1O)Cn1c(CO)nc2ncccc21 [Example 68, 1-(2-(hydroxymethyl)-1H-imidazo[4,5-b]pyridin-1-yl)-3-((2R,3S)-3-hydroxypiperidin-2-yl)propan-2-one]",0.1 to 0.5 µM
15,"O=C(C[C@H]1NCCC[C@@H]1O)Cn1cnc2nc(Br)ccc21 [Example 29, 1-(5-bromo-1H-imidazo[4,5-b]pyridin-1-yl)-3-((2R,3S)-3-hydroxypiperidin-2-yl)propan-2-one]",> 0.5 µM
16,"O/N=C(/C[C@H]1NCCC[C@@H]1O)Cn1cnc2ncc(Br)cc21 [Example 66, 1-(6-bromo-1H-imidazo[4,5-b]pyridin-1-yl)-3-((2R,3S)-3-hydroxypiperidin-2-yl)propan-2-one oxime]",> 0.5 µM
17,"O=C(C[C@H]1NCCC[C@@H]1O)Cn1cnc2cccnc21 [Example 34, 1-((2R,3S)-3-hydroxypiperidin-2-yl)-3-(3H-imidazo[4,5-b]pyridin-3-yl)propan-2-one]",0.1 to 0.5 µM
18,"O=C(C[C@H]1NCCC[C@@H]1O)Cn1cnc2c(Cl)ncnc21 [Example 44, 1-(6-chloro-9H-purin-9-yl)-3-((2R,3S)-3-hydroxypiperidin-2-yl)propan-2-one hydrochloride salt]",> 0.5 µM
19,"Cc1nc2ncccc2n1CC(=O)C[C@H]1NCCC[C@@H]1O [Example 49, 1-((2R,3S)-3-hydroxypiperidin-2-yl)-3-(2-methyl-1H-imidazo[4,5-b]pyridin-1-yl)propan-2-one]",> 0.5 µM
20,"C[C@H](O)c1nc2ccccc2n1CC(=O)C[C@H]1NCCC[C@@H]1O [Example 55, 1-(2-((S)-1-hydroxyethyl)-1H-benzo[d]imidazol-1-yl)-3-((2R,3S)-3-hydroxypiperidin-2-yl)propan-2-one]",> 0.5 µM
21,"COCc1nc2cc(Cl)c(Cl)cc2n1CC(=O)C[C@H]1NCCC[C@@H]1O [Example 63, 1-(5,6-dichloro-2-(methoxymethyl)-1H-benzo[d]imidazol-1-yl)-3-((2R,3S)-3-hydroxypiperidin-2-yl)propan-2-one]",> 0.5 µM

# Source: patent US10081634B2, “Heterocyclic compound” (Daewoong Pharmaceutical Co., Ltd., priority 2014, dated 2018)
